ChEMBL document CHEMBL3864133, “Discovery of a Potent and Selective in Vivo Probe (GNE-272) for the Bromodomains of CBP/EP300” (J Med Chem, 2016)
Activity calls are given as the source filed them. No cut-off for these calls is given here.

Experiments:
DOHH-2 = test: Antiproliferative activity against human DOHH2 cells measured after 6 days by CellTiter-Glo assay; type: functional, cell-based
[1] = Decrease in MYC mRNA expression in tumor of SCID beige mouse xenografted with human MOLM16 cells at 10 mg/kg, po administered twice daily via gavage as single dose measured after 2 to 8 hrs by RT-PCR analysis; type: functional, organism-based
Cytochrome P450 3A4 [2] = target: T1, Cytochrome P450 3A4 (Homo sapiens, UniProt P08684); test: Inhibition of CYP3A4 in human liver microsomes assessed as formation of 1-hydroxymidazolam from midazolam measured after 10 mins in presence of NADPH by LC-MS/MS analysis; type: ADME
[3] = target: T2, CREB-binding protein/Histone acetyltransferase p300 (Homo sapiens, UniProt Q09472+Q92793); test: Inhibition of CBP/EP300 in human MOLM16 cells assessed as suppression of MCL1 expression at 5 uM measured after 4 hrs by RT-PCR analysis relative to DMSO control; type: cell-based
EJM = test: Antiproliferative activity against human EJM cells measured after 6 days by CellTiter-Glo assay; type: functional, cell-based
LP-1 = test: Antiproliferative activity against human LP-1 cells measured after 6 days by CellTiter-Glo assay; type: functional, cell-based
Cytochrome P450 3A4 [4] = target: T1, Cytochrome P450 3A4; test: Inhibition of CYP3A4 in human liver microsomes assessed as formation of 6beta-hydroxytestosterone from testosterone measured after 10 mins in presence of NADPH by LC-MS/MS analysis; type: ADME; details: read-out: INH
[5] = Time at which unbound drug level in SCID beige mouse tumor stays above cellular MYC EC90 at 10 mg/kg, po administered twice daily via gavage as single dose; type: ADME, organism-based; details: in vivo
[6] = Antitumor activity against human MOLM16 cells xenografted in SCID beige mouse assessed as tumor growth inhibition at 50 mg/kg, po BID administered through gavage for 21 days; type: functional; details: read-out: TGI
[7] = target: T2, CREB-binding protein/Histone acetyltransferase p300; test: Inhibition of CBP/EP300 in human MOLM16 cells assessed as decrease in MYC expression measured after 4 hrs by RT-PCR analysis; type: cell-based
[8] = Oral bioavailability in nu/nu mouse at 100 mg/kg by LC-MS/MS analysis; type: ADME, organism-based; details: in vivo
[9] = Half life in nu/nu mouse at 1 mg/kg, iv or 100 mg/kg, po by LC-MS/MS analysis; type: ADME, organism-based; details: in vivo

T2 sequence (Q09472 whole entry, looked up): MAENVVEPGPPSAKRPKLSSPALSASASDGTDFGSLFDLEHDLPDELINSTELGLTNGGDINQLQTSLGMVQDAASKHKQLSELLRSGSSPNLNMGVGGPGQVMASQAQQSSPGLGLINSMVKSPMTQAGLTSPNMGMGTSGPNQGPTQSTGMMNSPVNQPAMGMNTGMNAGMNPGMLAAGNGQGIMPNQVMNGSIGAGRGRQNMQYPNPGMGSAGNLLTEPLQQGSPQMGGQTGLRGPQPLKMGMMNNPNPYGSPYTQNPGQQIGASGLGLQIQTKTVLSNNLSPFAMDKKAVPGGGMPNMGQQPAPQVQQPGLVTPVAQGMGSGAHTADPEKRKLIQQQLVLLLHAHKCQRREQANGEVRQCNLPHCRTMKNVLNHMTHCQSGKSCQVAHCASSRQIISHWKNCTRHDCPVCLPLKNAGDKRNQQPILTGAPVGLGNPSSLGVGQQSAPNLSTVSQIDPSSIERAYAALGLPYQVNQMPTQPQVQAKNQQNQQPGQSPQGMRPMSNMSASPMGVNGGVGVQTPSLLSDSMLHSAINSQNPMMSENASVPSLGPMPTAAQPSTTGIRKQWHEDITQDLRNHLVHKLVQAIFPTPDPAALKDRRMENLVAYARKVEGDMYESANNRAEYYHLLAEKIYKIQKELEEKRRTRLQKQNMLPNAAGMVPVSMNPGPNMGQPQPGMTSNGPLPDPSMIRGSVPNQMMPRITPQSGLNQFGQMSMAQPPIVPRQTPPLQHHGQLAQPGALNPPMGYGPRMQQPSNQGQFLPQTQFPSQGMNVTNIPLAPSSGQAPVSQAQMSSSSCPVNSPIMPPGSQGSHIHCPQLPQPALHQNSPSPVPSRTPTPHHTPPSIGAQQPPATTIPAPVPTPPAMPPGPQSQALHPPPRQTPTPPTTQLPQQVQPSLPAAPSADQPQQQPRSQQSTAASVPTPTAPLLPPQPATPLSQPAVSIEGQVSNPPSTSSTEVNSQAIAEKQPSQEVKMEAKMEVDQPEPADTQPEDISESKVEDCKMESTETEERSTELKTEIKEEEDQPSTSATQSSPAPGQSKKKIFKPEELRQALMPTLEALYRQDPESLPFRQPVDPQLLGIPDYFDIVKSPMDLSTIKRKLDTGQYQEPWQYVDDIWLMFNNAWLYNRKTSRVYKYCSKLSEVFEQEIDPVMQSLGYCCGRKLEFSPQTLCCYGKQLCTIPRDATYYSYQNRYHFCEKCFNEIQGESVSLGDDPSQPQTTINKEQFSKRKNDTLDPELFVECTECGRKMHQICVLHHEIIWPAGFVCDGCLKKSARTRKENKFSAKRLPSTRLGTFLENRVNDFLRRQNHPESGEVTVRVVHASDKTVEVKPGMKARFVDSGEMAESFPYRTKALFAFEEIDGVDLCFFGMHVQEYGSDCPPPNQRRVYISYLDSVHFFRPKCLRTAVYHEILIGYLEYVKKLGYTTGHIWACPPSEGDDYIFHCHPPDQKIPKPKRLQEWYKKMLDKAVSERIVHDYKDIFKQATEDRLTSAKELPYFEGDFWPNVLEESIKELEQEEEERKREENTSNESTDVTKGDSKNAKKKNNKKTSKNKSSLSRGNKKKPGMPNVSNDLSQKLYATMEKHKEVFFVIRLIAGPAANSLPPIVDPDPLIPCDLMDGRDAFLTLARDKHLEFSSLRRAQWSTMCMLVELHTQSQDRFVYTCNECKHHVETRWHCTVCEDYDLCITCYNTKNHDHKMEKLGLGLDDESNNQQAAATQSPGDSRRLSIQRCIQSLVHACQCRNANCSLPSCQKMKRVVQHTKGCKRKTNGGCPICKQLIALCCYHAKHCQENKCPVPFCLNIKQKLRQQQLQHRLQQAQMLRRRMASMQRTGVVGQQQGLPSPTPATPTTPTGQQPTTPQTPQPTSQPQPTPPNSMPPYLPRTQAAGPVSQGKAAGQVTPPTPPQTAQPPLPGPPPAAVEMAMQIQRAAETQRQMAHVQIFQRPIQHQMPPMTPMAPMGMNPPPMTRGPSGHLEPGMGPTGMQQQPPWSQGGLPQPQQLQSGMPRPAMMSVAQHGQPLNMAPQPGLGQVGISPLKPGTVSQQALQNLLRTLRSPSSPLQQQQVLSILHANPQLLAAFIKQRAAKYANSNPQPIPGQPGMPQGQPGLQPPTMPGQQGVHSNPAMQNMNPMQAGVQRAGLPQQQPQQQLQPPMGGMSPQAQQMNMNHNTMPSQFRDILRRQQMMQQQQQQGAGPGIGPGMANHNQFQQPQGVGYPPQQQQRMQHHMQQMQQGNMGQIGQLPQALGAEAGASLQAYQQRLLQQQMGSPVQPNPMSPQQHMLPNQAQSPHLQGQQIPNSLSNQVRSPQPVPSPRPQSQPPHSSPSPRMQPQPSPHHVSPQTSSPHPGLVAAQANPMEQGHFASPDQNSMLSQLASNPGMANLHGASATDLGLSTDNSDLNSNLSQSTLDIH
T2 sequence (Q92793 whole entry, looked up): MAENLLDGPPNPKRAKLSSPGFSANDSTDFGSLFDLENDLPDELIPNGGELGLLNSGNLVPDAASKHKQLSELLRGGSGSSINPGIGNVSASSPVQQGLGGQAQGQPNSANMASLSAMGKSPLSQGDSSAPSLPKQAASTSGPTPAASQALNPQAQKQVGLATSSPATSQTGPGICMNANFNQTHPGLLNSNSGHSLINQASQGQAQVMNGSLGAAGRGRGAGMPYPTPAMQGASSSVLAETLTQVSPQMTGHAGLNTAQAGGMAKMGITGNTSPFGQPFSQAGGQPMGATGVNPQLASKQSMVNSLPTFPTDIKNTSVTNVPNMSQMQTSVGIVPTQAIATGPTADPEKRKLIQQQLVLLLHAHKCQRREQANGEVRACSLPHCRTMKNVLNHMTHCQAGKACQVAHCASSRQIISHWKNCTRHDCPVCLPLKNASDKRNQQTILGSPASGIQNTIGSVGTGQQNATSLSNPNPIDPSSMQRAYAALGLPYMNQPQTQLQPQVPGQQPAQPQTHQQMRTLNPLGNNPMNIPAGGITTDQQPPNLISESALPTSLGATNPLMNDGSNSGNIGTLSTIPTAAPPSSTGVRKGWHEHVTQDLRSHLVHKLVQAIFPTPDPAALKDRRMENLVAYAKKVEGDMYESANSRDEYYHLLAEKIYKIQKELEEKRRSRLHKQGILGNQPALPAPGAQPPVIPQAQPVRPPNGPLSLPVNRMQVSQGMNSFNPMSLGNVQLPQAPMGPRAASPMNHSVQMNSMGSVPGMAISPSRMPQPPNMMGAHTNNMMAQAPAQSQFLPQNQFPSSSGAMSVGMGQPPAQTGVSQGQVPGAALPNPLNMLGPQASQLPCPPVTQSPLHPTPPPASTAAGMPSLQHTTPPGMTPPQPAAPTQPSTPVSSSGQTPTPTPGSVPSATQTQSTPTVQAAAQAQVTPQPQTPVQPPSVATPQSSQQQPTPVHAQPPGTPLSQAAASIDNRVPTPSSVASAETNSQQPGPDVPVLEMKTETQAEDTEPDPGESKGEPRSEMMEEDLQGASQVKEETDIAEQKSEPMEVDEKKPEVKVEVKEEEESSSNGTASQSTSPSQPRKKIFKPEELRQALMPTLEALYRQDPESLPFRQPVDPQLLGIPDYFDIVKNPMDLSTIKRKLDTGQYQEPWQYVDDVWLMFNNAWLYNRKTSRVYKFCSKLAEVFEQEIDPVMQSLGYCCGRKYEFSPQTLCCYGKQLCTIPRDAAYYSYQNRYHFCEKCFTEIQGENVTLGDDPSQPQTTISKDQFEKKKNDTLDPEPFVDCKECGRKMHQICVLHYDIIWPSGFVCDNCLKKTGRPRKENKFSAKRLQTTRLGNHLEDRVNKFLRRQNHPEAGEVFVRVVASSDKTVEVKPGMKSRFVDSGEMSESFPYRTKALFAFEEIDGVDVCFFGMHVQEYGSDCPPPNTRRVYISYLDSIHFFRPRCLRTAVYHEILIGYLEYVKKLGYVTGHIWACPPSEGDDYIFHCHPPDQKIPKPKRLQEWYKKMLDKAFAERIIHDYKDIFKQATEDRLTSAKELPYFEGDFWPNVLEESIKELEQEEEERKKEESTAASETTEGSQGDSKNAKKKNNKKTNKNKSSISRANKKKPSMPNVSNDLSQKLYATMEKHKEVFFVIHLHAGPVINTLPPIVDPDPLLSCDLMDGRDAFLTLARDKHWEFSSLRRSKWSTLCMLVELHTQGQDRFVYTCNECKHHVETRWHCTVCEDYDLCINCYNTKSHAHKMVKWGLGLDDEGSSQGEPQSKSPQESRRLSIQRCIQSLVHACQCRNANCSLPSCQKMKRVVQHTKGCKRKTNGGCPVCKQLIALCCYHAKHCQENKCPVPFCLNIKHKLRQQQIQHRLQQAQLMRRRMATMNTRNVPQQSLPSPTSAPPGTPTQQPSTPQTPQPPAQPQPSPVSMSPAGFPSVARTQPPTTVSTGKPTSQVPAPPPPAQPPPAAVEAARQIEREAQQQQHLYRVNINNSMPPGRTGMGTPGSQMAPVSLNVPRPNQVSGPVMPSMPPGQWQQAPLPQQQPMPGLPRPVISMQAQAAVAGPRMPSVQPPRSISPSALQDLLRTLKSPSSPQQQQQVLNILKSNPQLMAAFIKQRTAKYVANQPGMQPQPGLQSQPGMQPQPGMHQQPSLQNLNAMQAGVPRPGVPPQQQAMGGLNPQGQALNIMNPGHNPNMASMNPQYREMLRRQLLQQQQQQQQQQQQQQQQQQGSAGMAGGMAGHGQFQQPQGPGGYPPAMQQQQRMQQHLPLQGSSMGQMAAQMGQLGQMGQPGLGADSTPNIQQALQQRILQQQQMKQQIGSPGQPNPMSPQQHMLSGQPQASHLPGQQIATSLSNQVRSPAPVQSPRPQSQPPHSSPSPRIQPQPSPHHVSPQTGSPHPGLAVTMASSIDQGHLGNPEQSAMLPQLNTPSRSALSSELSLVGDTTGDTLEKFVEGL

- INH (Cytochrome P450 3A4 [2]): > 10 µM
- inhibition [3]: Active
- IC50 (Cytochrome P450 3A4 [4]): > 10000 nM
- Time [5]: 24 h
- EC90 [7]: 621 nM
- bioavailability [8]: 100%
- half-life [9]: 2 h
Structure (SMILES): CC(=O)N1CCc2c(c(Nc3ccc(-c4cnn(C)c4)cc3F)nn2[C@@H]2CCOC2)C1
- Activity (DOHH-2): Active
- inhibition [1]: Active
- Activity (EJM): Active
- Activity (LP-1): Active
- inhibition in vivo at 50 mg/kg [6]: 102%
